Reference: patent US20260209305A1, “THERAPEUTIC EXPLOITATION OF STING CHANNEL ACTIVITY” (The Broad Institute Inc., priority 2022, published 2026)

Columns and labels:
STING [1] = target: T1, STING (Homo sapiens, UniProt Q86WV6); experiment: STING-induced autophagy: LC3 lipidation, RFP-LC3 imaging in FIP200 KO 293T cells and western blot in BJ1 cells; assay type: cell-based; set-up: expressed in transfected cells; host or cells: FIP200 KO 293T cells, lentiviral transduction; details: 1 hour; for LC3 lipidation upon agonist treatment: 20 ug/ml cGAMP, 40 μM MSA2 or 1 μM diABZI
Method: Cells were then fixed with 2% Paraformaldehyde (Electron Microscopy Sciences) in PHEM buffer (Electron Microscopy Sciences) for 30 minutes at 37° C., washed three times with PBS and quenched with freshly prepared 0.1M Glycine for 10 minutes. Coverslips were then permeabilized and blocked with 1× perm/stain buffer (10% goat serum (Thermo Fisher) in PBS, 0.5% BSA (Seracare), 0.05% Saponin from quillaja barka (Sigma)) for 30 minutes. […] Coverslips were then washed 5 times, mounted with Fuoromont-G, with DAPI (Thermo Fisher) and dried at 37° C. for one hour. Images were acquired on Olympus. Images were acquired on an Olympus IX83 using an Olympus UApo 40× objective controlled by Fluoview software.
Western Blotting: BJ1 cells were seeded at 0.15 million cells/well density in a 24 well plate the night before stimulation. […] Cells were then harvested and lysed in 100 ul of 1×SDS sample buffer (Boston Bio, #BP111NR).
Cells were segmented by thresholding the DAPI signal to identify nuclei and expanding the resulting regions using the seeded watershed method. Cells were segmented based on background in the Lysosensor, LC3B-RFP, and NLRP3 mNeonGreen channels. For the live-cell imaging and NLRP3 stimulation experiments, background was subtracted using the rolling ball algorithm. Puncta or Golgi structures enhanced using a Laplacian of Gaussian filter with sigma=12 (live-cell), sigma=8 (NLRP3), or sigma=7 (LC3B).

STING [2] = target: T1, STING; experiment: Organelle pH measurement (Lysosensor) after STING activation in BJ1 cells; assay type: cell-based; details: human fibroblasts (BJ1), 1 μM diABZI, 1 hr
Method: Organelle pH Measurements and Image Acquisition: hTERT-immortalized BJ1 cells (ATCC CRL-2522) were plated in 24-well glass-bottom plates (Greiner Bio-One). After 24 hours, cells were stained for 30 minutes at 37° C. with 5 μM Lysosensor (Thermo Fisher Scientific cat #L7535), […] Hoechst (Thermo Fisher Scientific, cat. #62249), and 1 μM Bodipy TR Ceramide (Thermo Fisher Scientific cat #B34400) for Golgi labeling or 100 nM Lysotracker Deep Red (Thermo Fisher Scientific cat #L12492) for endolysosome labeling in Phenol-free DMEM medium with 10% FBS and 1% Pen-Strep. Cells were then washed five times with Phenol-free DMEM medium and stimulated with 1 μM DIABZI for 1 hr with or without the addition of 10 μM C53. […] An LED light engine (Lumencor CELESTA Light Engine) was used for fluorescence illumination and all hardware was controlled using NIS elements software. […]
Given the necessity of both the STING transmembrane domain and its translocation for autophagy induction, it was investigated whether the entire STING protein could cause ion leakage by either inducing membrane damage resulting in a secondary ion imbalance or by directly acting as an ion channel. […] The possibility that STING directly behaves as a channel for proton release into the cytosol upon translocation to the Golgi was assessed, the Golgi being an acidic compartment (Linders et al. 2022). […]

NLRP3 = experiment: NLRP3-mNeongreen reporter: NLRP3 puncta in 293T cells expressing STING-HA; assay type: cell-based, human; details: 1 μM diABZI, 1 hour
NLRP3 inflammasome = experiment: Inflammasome activation and IL-1ß release in primary human monocytes; assay type: cell-based
STING [3] = experiment: p-STING and LC3B lipidation immunoblot in 293T cells expressing WT STING, STING AQQA or TMEM192-STING-LBD; assay type: cell-based, human; details: 293T cells expressing the STING construct
Method: Genes that are essential for mediating STING-induced autophagy were systematically identify, with a special interest in identifying potential transporters responsible for ion leakage. […] A genome-wide CRISPR fluorescence-activated cell sorting (FACS) screen was carried out using HEK293T cells expressing RFP-LC3 and STING-HA with FIP200 knocked out in order to reduce background signal from basal autophagy. Following transduction with the sgRNA library, cells were stimulated with diABZI to induce STING activation and STING-HA+ cells were sorted into LC3− and LC3+ bins (FIG. 1A) to specifically identify genes that altered CASM activation without affecting STING activation. […] The STING itself may have mediated Golgi/endosomes proton leakage critical for subsequent assembly of V-ATPase and recruitment of ATG16L1 to initiate CASM (Xu et al. 2019). In order to assess this, whether the STING ligand-binding domain (LBD), which has been proposed to recruit LC3 through its LR motifs (Gui et al. 2019; Liu et al. 2019), could induce autophagy upon translocation to Golgi/endosomes was first tested. Autophagy induction was tested in 293T cells by WT STING, a STING oligomerization-deficient mutant (A277Q/Q273A STING, termed AQQA), and an endolysosome-localized STING fusion protein (the endolysosomal protein TMEM192 fused with the STING LBD) upon agonist stimulation. […]

STING [4] = experiment: RFP-LC3 induction and pSTING by FACS in HEK293T cells expressing STING WT or H50R; assay type: cell-based, human; details: mutant vs WT STING, FIP200 KO 293T cells, agonist stimulation
Method: FACS based genome-wide CRISPR screen and mutagenesis screen: FIP200 KO 293T cells were generated by transfecting 293T cells with pXPR_023 (Addgene #52961), encoding Cas9 and an sgRNA against FIP200 and selecting cells with 2 μg/ml puromycin (Thermo Fisher Scientific #A1113803) for two days. FIP200 KO 293T cells were then transduced with pTRIP-PGK-Hygro-P2A-RFP-LC3, treated with 33 μg/ml hygromycin (Invivogen, #ant-hg-1) for 3 days, and then sorted to get a homogenous RFP+ population.
Mutagenesis screen: RFP-LC3 FIP200 KO 293T cells were infected with saturated mutagenesis library lentivirus at MOI=0.2, and selected with 20 μg/ml blasticidin for 2 days. 150M transduced cells were treated with diABZI for 1.5 hr, and then permeabilized with 1× perm buffer (PBS with 0.05% saponin and 0.1% glycine) for 4 min. Permed cells are then washed with 1×PBS, and fix, perm, and stained using BD Cytofix/Cytoperm kit and anti-pSTING Alexa647 (CST, #43499) at 1:100 dilution.
A sorting strategy similar to the genome-wide CRISPR screen was followed, sorting populations of LC3− and LC3+ HEK293T cells within the pSTING+ cell population (FIG. 3E), thus ensuring that the sorted cell mutants enabled expression of functional STING able to translocate to Golgi/endosomes where phosphorylation of STING occurs (Dobbs et al. 2015). […]
Target sequence in this assay (Q86WV6 153-340 limits assumed): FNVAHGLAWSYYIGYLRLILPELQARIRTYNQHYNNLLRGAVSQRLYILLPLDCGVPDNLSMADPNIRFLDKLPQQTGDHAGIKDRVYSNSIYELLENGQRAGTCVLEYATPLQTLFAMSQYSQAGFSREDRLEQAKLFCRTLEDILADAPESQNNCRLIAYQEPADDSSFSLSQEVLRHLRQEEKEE

T1 sequence (Q86WV6 whole entry): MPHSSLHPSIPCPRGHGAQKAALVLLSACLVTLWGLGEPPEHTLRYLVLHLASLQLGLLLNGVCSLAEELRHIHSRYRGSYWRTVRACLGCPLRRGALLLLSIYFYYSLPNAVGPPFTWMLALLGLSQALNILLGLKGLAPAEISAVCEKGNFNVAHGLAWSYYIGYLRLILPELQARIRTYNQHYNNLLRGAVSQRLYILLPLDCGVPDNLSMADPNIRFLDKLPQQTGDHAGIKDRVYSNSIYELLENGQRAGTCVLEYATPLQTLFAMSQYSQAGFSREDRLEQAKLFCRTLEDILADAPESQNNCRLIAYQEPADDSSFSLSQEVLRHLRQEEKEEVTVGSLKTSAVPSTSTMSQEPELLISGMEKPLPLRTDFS

Compound: COc1cc2cc(C(=O)CCC(=O)O)sc2cc1OC [MSA2]
- LC3 lipidation upon agonist treatment (STING [1]): LC3 lipidation was induced

Compound: CO[C@@H]1C[C@@H](C[C@H]2CC[C@H](C)[C@H]([C@@H](C)C(=O)O)O2)O[C@]2(O[C@](C)([C@H]3CC[C@@](C)([C@@H]4O[C@@H]([C@H]5O[C@@](O)(CO)[C@H](C)C[C@@H]5C)C[C@@H]4C)O3)C[C@H]2C)[C@@H]1C [Nigericin]
- LC3 lipidation by independent ionophore stimulus (STING [1]; BJ1 cells, 2 μM Nigericin): induction of LC3 lipidation

Compound: CCn1nc(C)cc1C(=O)Nc1nc2cc(C(N)=O)cc(OC)c2n1C/C=C/Cn1c(NC(=O)c2cc(C)nn2CC)nc2cc(C(N)=O)cc(OCCCN3CCOCC3)c21 [diABZI]
- fluorescence within the endolysosomal compartment (STING [2]): only modestly altered
- pH within the Golgi apparatus (decreased fluorescence of Lysosensor Green dye) (STING [2]): significant increase in pH
- NLRP3 translocation upon stimulation (NLRP3): NLRP3 translocated from the cytoplasm to perinuclear vesicles
- IL-1ß release upon STING agonist stimulation (NLRP3 inflammasome): induced
- LC3 lipidation upon agonist treatment (STING [1]): LC3 lipidation was induced

Compound: AQQA: STING oligomerization-deficient mutant (A277Q/Q273A STING)
- autophagy induction (LC3B lipidation) upon agonist stimulation (STING [3]): impaired LC3B lipidation

Compound: STING H50R: human STING polypeptide with H50R substitution in TM2, inside the pore area
- LC3 induction within pSTING+ cells (STING-induced autophagy) (STING [4]): reduced
- LC3 induction within pSTING+ cells (STING-induced autophagy) (STING [4]; listed as H50R): strongly inhibit

Compound: cyclic GMP-AMP [cGAMP]
- IL-1ß release upon STING agonist stimulation (NLRP3 inflammasome): induced
